Test results: US12240825B2, “Oxexin 1 receptor antagonists” (Heptares Therapeutics Limited, priority 2019, dated 2025)

How the values were obtained:
Human OX2 receptor [1] = molecular target: T1, Human OX2 receptor (Homo sapiens (Human), UniProt O43614); test: IPone accumulation assay, CHO cells expressing OX2; type: cell-based; conditions: antagonism of orexin A (EC80 40 nM)-induced inositol phosphate turnover, read-out: fpKb average OX2 (converted)
Method: Generation of CHO stable cell lines expressing the human OX1R and OX2R. Stable cell lines for the human OX1R and OX2R receptors were generated through the transfection of CHO cells using the transfection reagent Genejuice (Novagen number 70967) and cDNA coding for either the human OX1R or OX2R. Cells were cultured in Sigma Nutrient Mixture F-12 Ham media (catalog number N6658) supplemented with 10% heat-inactivated FBS. Forty-eight hours after transfection, cells were harvested and placed under geneticin selection by culturing in Sigma Nutrient Mixture F-12 Ham media supplemented with 10% heat-inactivated FBS and geneticin (ThermoFisher Catalog number: 10131035). Selection of the final stable clone for each receptor was made on the basis of receptor expression, assay signal to noise and robustness though increasing passage. Selected clones for the human OX1R and OX2R were then frozen down into liquid nitrogen using Cell Freezing Medium-DMSO (Sigma-Aldrich catalog number: C6164). IPone accumulation assay. A CHO cell line stably expressing either human OX1 or OX2 receptor was used with the IPone HTRF assay kit (CisBio: Part #62[…]) to measure receptor activation. The assay was optimised to measure the ability (potency; fpKb) of antagonists to reduce agonist (orexin A)-induced inositol phosphate turnover. Briefly, cells were plated onto half area 96-well white walled plates at a density of 12,500 cells/well. Sixteen hours post-plating cell growth media was replaced with antagonist concentration-response curve diluted in stimulation buffer (supplied with the kit). Cells were incubated in a humidified incubator (37° C.) for 30 min before an EC80 challenge concentration ( 20 nM (OX1) and 40 nM (OX2)) of orexin A (Tocris catalogue number 1455). After 30 min stimulation in a humidified incubator (37° C.) the assay was terminated by the addition of detection mixture as per manufacturer's instructions. The concentration of compound which reduced orexin-A stimulated turnover of inositol phosphates by 50% (IC50) was calculated by fitting to a four parameter sigmoidal dose response curve. The IC50 values were converted to fpKB values using the orexin A pEC50 value estimated on each plate as well as the challenge concentration interpolated from the orexin A control curve.

Human OX1 receptor [2] = molecular target: T2, Human OX1 receptor (Homo sapiens (Human), UniProt O43613); test: [3H]-radioligand binding assay, OX1; conditions: for pKi average OX1: competition binding, membranes of SF21 cells, Ki by Cheng-Prusoff
T2 sequence (O43613 whole entry): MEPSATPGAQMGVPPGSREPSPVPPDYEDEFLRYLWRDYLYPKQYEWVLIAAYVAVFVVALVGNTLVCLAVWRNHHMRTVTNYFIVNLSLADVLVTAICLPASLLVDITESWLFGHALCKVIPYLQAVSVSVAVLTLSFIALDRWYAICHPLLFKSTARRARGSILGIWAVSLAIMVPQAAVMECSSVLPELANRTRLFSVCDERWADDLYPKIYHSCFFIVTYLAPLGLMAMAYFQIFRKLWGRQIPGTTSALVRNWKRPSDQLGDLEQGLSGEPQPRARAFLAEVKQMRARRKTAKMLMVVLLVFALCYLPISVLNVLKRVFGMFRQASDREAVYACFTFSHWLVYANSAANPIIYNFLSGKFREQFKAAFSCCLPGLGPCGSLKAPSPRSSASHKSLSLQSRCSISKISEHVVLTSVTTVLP
Text: (§1) Cloning, Baculovirus generation, large-scale infection of SF21 cells and membrane preparation. Human OX1 or OX2 receptor were cloned into Invitrogen's (ThermoFisher Scientific, UK) Bac-to-Bac Baculovirus Expression System. P0 baculovirus was generated by transfecting SF9 cells with bacmid DNA using Cellfectin® II transfection reagent (ThermoFisher Scientific, UK, Catalog number 10362-100). Following P0 generation P1 virus was then generated ready for large scale infection and membrane preparation. SF21 cells were grown in expression medium ESF921 (Expression Systems, USA, catalog number 96-001-01) supplemented with 10% heat-inactivated FBS and 1% Pen/Strep and were infected at a cell density of 2.5×10^6 cells/mL and a multiplicity of infection of 1.0 for both human OX1R and OX2R. Incubation was carried out at over 48 h in a shaking incubator set at 27° C. The cell culture was then centrifuged at 2,500 rcf for 10 min at 4° C. The pellets were resuspended in cold PBS supplemented with Roche's Complete EDTA-free protease inhibitor cocktail tablets (Roche Applied Sciences, catalog number 05056489001), 1 mM PMSF and 1 mM EDTA. The resuspended cell paste was then centrifuged at 3,273 rcf for 12 min at 4° C. The supernatant was discarded and the pellet frozen at −80° C. The cell pellet from a 4 L culture was resuspended in buffer containing 50 mM HEPES pH 7.5, 150 mM NaCl, 8 Roche EDTA-Free protease inhibitor cocktail tablets and 1 mM PMSF. The suspension was left stirring at rt for 1 h and then homogenised for 90 s at 9,500 rpm using a VDI 25 (VWR, USA) homogeniser. The cells were then lysed using a Microfluidiser processor M-110L Pneumatic (Microfluidics, USA) at 60 PSI and membranes collected by ultracentrifugation at 204.7 k×g for 1 h. The supernatant was discarded and the pellet was resuspended and homogenised in 90 s at 9,500 rpm in 50 mL (25 mL for each 2 L culture) of buffer containing 50 mM Hepes pH 7.5, 150 mM NaCl, 3 Roche EDTA-free protease inhibitor cocktail tablets and 1 mM PMSF. The resulting membranes were then stored at −80° C.
(§2) [^3H]-radioligand binding assay. After thawing, membrane homogenates were resuspended in the binding buffer (8.5 mM HEPES, pH 7.4, 1.3 mM CaCl2, 1.2 mM MgSO4, 118 mM NaCl, 4.7 mM KCl, 4 mM NaHCO3, 1.2 mM KH2PO4, 11 mM glucose) to a final assay concentration of 6.4 μg (OX1) or 1.4 μg (OX2) protein per well. Saturation isotherms were determined by the addition of various concentrations (0-30 nM) of [^3H]-4-(2,6-difluoro-4-methoxybenzyl)-2-(5,6-dimethoxypyridin-3-yl)-2H-1,2,4-benzothiadiazin-3(4H)-one 1,1-dioxide (Christopher et al, MedChemComm., 2015, 6, 947-955) in a total reaction volume of 250 μL for 90 min at rt. At the end of the incubation, membranes were filtered onto a 96-well GF/B filter pre-incubated with 0.5% polyethylenimine, with a Tomtec cell harvester and washed 5 times with 0.5 mL distilled water. Non-specific binding (NSB) was measured in the presence of 3.33 μM [4-(5-chloro-1,3-benzoxazol-2-yl)-7-methyl-1,4-diazepan-1-yl][5-methyl-2-(2H-1,2,3-triazol-2-yl)phenyl]methanone (Wertz et al, Angew. Chem. Int. Ed., 2011, 50, 11511-11515). Radioactivity on the filter was counted (1 min) on a Microbeta radiometric plate counter (Perkin Elmer) after addition of 50 μL of scintillation fluid (LabLogic: Part #SG-BXX-14). […] IC50 values were derived from the inhibition curve and the equilibrium dissociation constant (Ki) values were calculated using the Cheng-Prusoff equation.

Human OX2 receptor [3] = molecular target: T1, Human OX2 receptor; test: [3H]-radioligand binding assay, OX2; conditions: for pKi average OX2: competition binding, membranes of SF21 cells, Ki by Cheng-Prusoff
Text: as §1, §2

Human OX1 receptor [4] = molecular target: T2, Human OX1 receptor; test: IPone accumulation assay, CHO cells expressing OX1; type: cell-based; conditions: antagonism of orexin A (EC80 ~20 nM)-induced inositol phosphate turnover, read-out: fpKb average OX1 (converted)
Method: Generation of CHO stable cell lines expressing the human OX1R and OX2R. Stable cell lines for the human OX1R and OX2R receptors were generated through the transfection of CHO cells using the transfection reagent Genejuice (Novagen number 70967) and cDNA coding for either the human OX1R or OX2R. Cells were cultured in Sigma Nutrient Mixture F-12 Ham media (catalog number N6658) supplemented with 10% heat-inactivated FBS. Forty-eight hours after transfection, cells were harvested and placed under geneticin selection by culturing in Sigma Nutrient Mixture F-12 Ham media supplemented with 10% heat-inactivated FBS and geneticin (ThermoFisher Catalog number: 10131035). Selection of the final stable clone for each receptor was made on the basis of receptor expression, assay signal to noise and robustness though increasing passage. Selected clones for the human OX1R and OX2R were then frozen down into liquid nitrogen using Cell Freezing Medium-DMSO (Sigma-Aldrich catalog number: C6164).
IPone accumulation assay. A CHO cell line stably expressing either human OX1 or OX2 receptor was used with the IPone HTRF assay kit (CisBio: Part #62IPAPEJ) to measure receptor activation. The assay was optimised to measure the ability (potency; fpKb) of antagonists to reduce agonist (orexin A)-induced inositol phosphate turnover. Briefly, cells were plated onto half area 96-well white walled plates at a density of 12,500 cells/well. Sixteen hours post-plating cell growth media was replaced with antagonist concentration-response curve diluted in stimulation buffer (supplied with the kit). Cells were incubated in a humidified incubator (37° C.) for 30 min before an EC80 challenge concentration (˜20 nM (OX1) and 40 nM (OX2)) of orexin A (Tocris catalogue number 1455). After 30 min stimulation in a humidified incubator (37° C.) the assay was terminated by the addition of detection mixture as per manufacturer's instructions. The concentration of compound which reduced orexin-A stimulated turnover of inositol phosphates by 50% (IC50) was calculated by fitting to a four parameter sigmoidal dose response curve. The IC50 values were converted to fpKB values using the orexin A pEC50 value estimated on each plate as well as the challenge concentration interpolated from the orexin A control curve.

T1 sequence (O43614 whole entry): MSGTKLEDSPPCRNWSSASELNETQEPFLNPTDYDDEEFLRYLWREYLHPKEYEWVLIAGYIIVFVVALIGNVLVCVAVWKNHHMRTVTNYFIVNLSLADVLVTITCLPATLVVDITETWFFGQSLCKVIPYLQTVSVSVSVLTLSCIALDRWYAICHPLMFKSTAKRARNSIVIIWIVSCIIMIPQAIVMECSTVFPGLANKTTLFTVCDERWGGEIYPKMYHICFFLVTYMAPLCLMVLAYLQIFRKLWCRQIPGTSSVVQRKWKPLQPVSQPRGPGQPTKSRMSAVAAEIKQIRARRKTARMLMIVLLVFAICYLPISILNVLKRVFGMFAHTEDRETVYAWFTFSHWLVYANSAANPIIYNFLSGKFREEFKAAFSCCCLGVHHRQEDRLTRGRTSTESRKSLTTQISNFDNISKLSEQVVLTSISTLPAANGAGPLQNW

Row | SMILES | Kb (Human OX2 receptor [1]) [nM] | pKi average OX1 (Human OX1 receptor [2]) | pKi average OX2 (Human OX2 receptor [3]) | Kb (Human OX1 receptor [4]) [nM] | Kd (Human OX1 receptor [2]; saturation isotherms) [nM] | Kd (Human OX2 receptor [3]; saturation isotherms) [nM]
1 | CC(=O)Nc1ccc(-n2nccn2)c(C(=O)N[C@H]2CCC[C@@H]2COc2ccc(Cl)cc2)n1 [Example 6, 6-acetamido-N-[(1S,2S)-2-[(4-chlorophenoxy)methyl]cyclopentyl]-3-(triazol-2-yl)pyridine-2-carboxamide] | > 631 | 8.1 | <5.2 | 7.94 | – | –
2 | CC(=O)Nc1ccc(-c2ncccn2)c(C(=O)N[C@H]2CCC[C@@H]2COc2ccc(F)cc2)n1 [Example 14, 6-acetamido-N-[(1S,2S)-2-[(4-fluorophenoxy)methyl]cyclopentyl]-3-pyrimidin-2-yl-pyridine-2-carboxamide] | > 398 | 8.3 | 6.0 | 3.98 | – | –
3 | CC(=O)Nc1ccc(-n2nccn2)c(C(=O)N(C)[C@H]2CCC[C@@H]2COc2ccc(F)cc2)n1 [Example 5, 6-acetamido-N-[(1S,2S)-2-[(4-fluorophenoxy)methyl]cyclopentyl]-N-methyl-3-(triazol-2-yl)pyridine-2-carboxamide] | > 1000 | 8.5 | 6.0 | 3.16 | – | –
4 | [2H]C([2H])(Oc1ccc(F)cc1)[C@H]1CCC[C@@H]1NC(=O)c1nc(NC(C)=O)ccc1-n1nccn1 [Example 8, 6-acetamido-N-[(1S,2S)-2-[dideuterio-(4-fluorophenoxy)methyl]cyclopentyl]-3-(triazol-2-yl)pyridine-2-carboxamide] | > 794 | 8.4 | 5.8 | 15.8 | – | –
5 | COC(=O)Nc1ccc(-n2nccn2)c(C(=O)N[C@H]2CCC[C@@H]2COc2ccc(F)cc2)n1 [Example 10, methyl N-[6-[[(1S,2S)-2-[(4-fluorophenoxy)methyl]cyclopentyl]carbamoyl]-5-(triazol-2-yl)-2-pyridyl]carbamate] | > 794 | 8.1 | <5.9 | 79.4 | – | –
6 | O=C(N[C@H]1CCC[C@@H]1COc1ccc(F)cc1)c1nc(NC(=O)C(F)F)ccc1-n1nccn1 [Example 11, 6-[(2,2-difluoroacetyl)amino]-N-[(1S,2S)-2-[(4-fluorophenoxy)methyl]cyclopentyl]-3-(triazol-2-yl)pyridine-2-carboxamide] | > 1000 | 7.9 | <5.8 | 31.6 | – | –
7 | O=C(N[C@H]1CCC[C@@H]1COc1ccc(F)cc1)c1nc(NC(=O)C2CC2)ccc1-n1nccn1 [Example 13, 6-(cyclopropanecarbonylamino)-N-[(1S,2S)-2-[(4-fluorophenoxy)methyl]cyclopentyl]-3-(triazol-2-yl)pyridine-2-carboxamide] | > 1000 | 7.8 | <6.0 | – | – | –
8 | COCC(=O)Nc1ccc(-c2ncccn2)c(C(=O)N[C@H]2CCC[C@@H]2COc2ccc(F)cc2)n1 [Example 16, N-[(1S,2S)-2-[(4-fluorophenoxy)methyl]cyclopentyl]-6-[(2-methoxyacetyl)amino]-3-pyrimidin-2-yl-pyridine-2-carboxamide] | > 1000 | 7.7 | <5.1 | 200 | – | –
9 | CC(=O)Nc1cc(C(=O)N[C@H]2CCC[C@@H]2COc2ccc(F)cc2)c(-c2ncccn2)cn1 [Example 24, 2-acetamido-N-[(1S,2S)-2-[(4-fluorophenoxy)methyl]cyclopentyl]-5-pyrimidin-2-yl-pyridine-4-carboxamide] | > 398 | 8.3 | 6.6 | 1.26 | – | –
10 | Nc1ccc(-c2ncccn2)c(C(=O)N[C@H]2CCC[C@@H]2COc2ccc(F)cc2)n1 [Example 12, 6-amino-N-[(1S,2S)-2-[(4-fluorophenoxy)methyl]cyclopentyl]-3-pyrimidin-2-yl-pyridine-2-carboxamide] | – | 8.2 | – | 5.01 | – | –
11 | COc1cc(F)c(CN2C(=O)N(c3cnc(OC)c(OC)c3)S(=O)(=O)c3ccccc32)c(F)c1 [[^3H]-4-(2,6-difluoro-4-methoxybenzyl)-2-(5,6-dimethoxypyridin-3-yl)-2H-1,2,4-benzothiadiazin-3(4H)-one 1,1-dioxide, reference compound] | – | – | – | – | 1.5 | 0.75
